# Data as given in patent US20150329918A1, “JAGGED1 AS A MARKER AND THERAPEUTIC TARGET FOR BREAST CANCER BONE METASTASIS” (The Trustees of Princeton University, priority 2011, published 2015).
# Legend:
# Notch reporter = Notch reporter assay in MC3T3-E1 osteoblasts cocultured with JAG1 OE tumor cells; type: cell-based, mouse; settings: 6-fold increase induced by JAG1 OE tumor cell coculture; FIG. 7A
# Method: For transfection experiments, MC3T3-E1 osteoblasts were seeded at 2×10^5 cells/well in 12-well plates and grown to 95% confluence. For reporter assays, the firefly luciferase Notchreporter (Zeng et al., 2005, which is incorporated herein by reference as if fully set forth) and cytomegalovirus (CMV)-Renilla luciferase control (Promega) plasmids were transfected using Lipofectamine 2000 at concentrations designated by the manufacturer's instructions. After 4 hours, the transfection media was changed to regular media containing 1×10^5 vector control or JAG1 OE tumor cells per well and plated in triplicate in the presence of DMSO or MRK-003. Following 2 days, the coculture was lysed and subjected to a luciferase assay in which firefly counts (Notch reporter activity) was divided by renilla counts to normalize for transfection efficiency. For siRNA transfection experiments, a scrambled control siRNA or two distinct targeting siRNAs against Rbpj #1-[…] [SEQ ID NO: 6] and #2-[…] [SEQ ID NO: 7] or Hey1 #1-[…] [SEQ ID NO: 8] and #2-[…] [SEQ ID NO: 9] […] Following 6 days, the coculture was lysed and subjected to a luciferase assay to selectively quantify the number of tumor cells. For gene expression analysis, RNA from cocultures was collected in RLT lysis buffer, extracted with RNeasy mini kit (Qiagen), and subjected to quantitative RT-PCR.
# MC3T3-E1 osteoblasts = test: Microarray gene expression profiling of FACS-separated MC3T3-E1 osteoblasts; type: cell-based, mouse; settings: FIG. 11B
# Description: For microarray analysis the quality of the FACS-separated MC3T3-E1 RNA samples was monitored using the 2100 bioanalyzer (Agilent) before gene expression profiling with the Agilent mouse […] microarrays. To find genes regulated by JAGGED1 and MRK-003 in osteoblasts, expression data of MC3T3-E1 under the indicated coculture and treatment conditions were generated and normalized by the array median, and probes were filtered by the expression levels. Probes with >2-fold changes in MC3T3-E1 cells cocultured with JAG1 OE tumor cells relative to vector-control tumor cells were identified as the regulated genes.
# [1] = test system: MDA231 sublines (SCP28 tumor cells); test: Proliferation of tumor cells cultured alone; type: cell-based, human
# IL-6 = test: Murine IL-6 ELISA and qRT-PCR in osteoblast cocultures; type: cell-based, mouse; settings: JAG1 OE coculture with MC3T3-E1; FIGS. 13B, 13C, 13E
# Method: Quantitative levels of murine IL-6 in the conditioned medium of cultured and cocultured cells were determined in triplicate by ELISA according to the manufacturer's protocol (Quantikine immunoassay kit, R&D systems).
# RNA from in vitro cultured cells or flow cytometry-separated cells was collected in RLT lysis buffer and extracted with RNeasy mini kit (Qiagen). RNA extraction from in vivo tissue samples was performed using Trizol (Invitrogen) according to the manufacturer's protocol. cDNA synthesis of RNA was performed using Superscript III First-Strand (Invitrogen). Quantitative RT-PCR was performed using Power Syber Green PCR Master Mix (Applied Biosystems) with the ABI Prism 7900HT thermocycler (Applied Biosystems) according to the manufacturer's protocol. A standard curve for each gene was generated by serial dilutions of a standard. Values were then normalized by the amount of GAPDH or β-actin in each sample. For in vivo samples, species-specific primers were employed for gene expression analysis in the tumor compartment (human) versus stroma compartment (mouse).
# [2] = test system: primary mammary tumors of MDA231 sublines; test: Orthotopic primary mammary tumor xenograft; settings: mouse, in vivo
# Method: For bone metastsis studies, 10^5 tumor cells were injected into the left cardiac ventricle of anesthetized female athymic Ncr-nu/nu or BALB/c mice. Development of metastases was monitored by BLI. Bioluminescence images were acquired with a Xenogen IVIS 200 Imaging System. Analysis was performed with Living Image software by measuring photon flux in the hindlimbs of mice. Data were normalized to the signal on day 7. Bone metastasis-free survival curves represent the time point at which each mouse developed bone metastasis by threshold BLI signals in the hindlimbs. For the orthotopic xenograft model, mammary fat pad injections and primary tumor size measurements were performed following the procedure described previously (Minn et al., 2005, which is incorporated herein by reference as if fully set forth).
# MRK-003 is a potent and specific gamma-secretase inhibitor whose biochemical, cellular and pharmacological properties have been extensively studied and reported. MRK-003 is a cyclic sulfamide with sub-nanomolar potency inhibiting gamma-secretase-mediated cleavage of Notch to its active form (NICD) (Lewis et al., 2007, which is incorporated herein by reference as if fully set forth). […] For xenograft experiments, mice were administered the vehicle (0.5% methylcellulose) or MRK-003 by oral gavage twice a week at a 100 mg/kg dosage. The dosing schedule was 2-days on, 5-days off. […]
# gamma-secretase = settings: Lewis et al., 2007; cited from earlier work
# Notch = settings: cited from earlier work
# [3] = LoRusso et al, AACR 2009; cited from earlier work
smiles,measurement,setting,value
O=S1(=O)N[C@@]2(CN1CC(F)(F)F)[C@@H]1CC[C@H]2Cc2ccc(/C=C/CN3CCC(C(F)(F)F)CC3)cc2C1 [MRK-003],Notch activity (Notch reporter),Notch reporter,abolished
same,123 genes activated at least 3-fold in MC3T3-E1 by JAG1 OE coculture,MC3T3-E1 osteoblasts,concomitantly downregulated
same,proliferative ability of tumor cells cultured alone,"[1]; JAG1 OE SCP28 without osteoblasts, FIGS. 9B-9C",did not affect
same,"proliferation assays of MDA231 sublines, control vs treated",[1]; relatively low concentrations sufficient to inhibit Notch in bone-specific cells,no difference
same,IL-6 transcription and secretion from osteoblasts,IL-6,dependent on the Notch pathway
same,growth rate of primary mammary tumors,[2],not altered
same,"primary tumor xenografts of MDA231 sublines, control vs treated",[2],no difference
same,potency inhibiting gamma-secretase-mediated cleavage of Notch to NICD,gamma-secretase,sub-nanomolar
same,efficacy with intermittent exposure in mice,"Notch; Tammam et al., 2009",robust efficacy
same,intestinal effect resulting from Notch inhibition,Notch; recovery during dosing holiday,transient intestinal metaplasia (goblet cell induction)
same,clinical responses with once-weekly dosing,[3],strong clinical responses
same,tolerability of once-weekly dosing in the clinic,[3],well-tolerated
